Results taken from patent US20100041089A1, “IMPROVED METHOD FOR DETECTING CHEMICAL […]” (priority 2006, published 2010).

System: yeast genes (expressed mRNA)
Experiment: DNA chip measurement of expressed mRNA of yeast genes after culture with a toxic chemical substance
Type: cell-based, Saccharomyces cerevisiae S288C
In short: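 S. cerevisiae S288C grown at 25 °C in YPD, exposed in log phase for 2 h to a toxicant at growth-inhibiting, non-lethal concentration. Cy3/Cy5-labelled cDNA from poly(A) mRNA hybridized to whole-genome chip at 65 °C >12 h. Ratio to untreated control, ≥2 significant.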

C[S+](C)[O-] [(15), Dimethyl sulfoxide]
The level of expressed mRNA in the presence of chemical substance/The level of expressed mRNA in the absence of chemical substance (yeast gene YJL152W, cultured two hours with substance): 0.8
The level of expressed mRNA in the presence of chemical substance/The level of expressed mRNA in the absence of chemical substance (yeast gene YJL186W, cultured two hours with substance): 2.5
level of expressed mRNA in the presence of chemical substance / level in the absence of chemical substance (yeast gene YJR030C, cultured two hours with the chemical substance): 0.8
The level of expressed mRNA in the presence of chemical substance/The level of expressed mRNA in the absence of chemical substance (yeast gene YJR074W, cultured two hours with substance): 3.4
level of expressed mRNA in the presence of chemical substance / level in the absence of chemical substance (yeast gene YKL051W, cultured two hours with the chemical substance): 1.5
level of expressed mRNA in the presence of chemical substance / level in the absence of chemical substance (yeast gene YKL097C, cultured two hours with the chemical substance): 0.8
level of expressed mRNA in the presence of chemical substance / level in the absence of chemical substance (yeast gene YKL100C, cultured two hours with the chemical substance): 1.7
level of expressed mRNA in the presence of chemical substance / level in the absence of chemical substance (yeast gene YKR040C, cultured two hours with the chemical substance): 1.1
The level of expressed mRNA in the presence of chemical substance/The level of expressed mRNA in the absence of chemical substance (yeast gene YKR046C, cultured two hours with substance): 2.9
The level of expressed mRNA in the presence of chemical substance/The level of expressed mRNA in the absence of chemical substance (yeast gene YLR041W, cultured two hours with the chemical substance): 1.3
The level of expressed mRNA in the presence of chemical substance/The level of expressed mRNA in the absence of chemical substance (yeast gene YLR132C, cultured two hours with substance): 2.3
The level of expressed mRNA in the presence of chemical substance/The level of expressed mRNA in the absence of chemical substance (yeast gene YLR149C, cultured two hours with substance): 1.3
The level of expressed mRNA in the presence of chemical substance/The level of expressed mRNA in the absence of chemical substance (yeast gene YLR151C, cultured two hours with the substance): 0.7
The level of expressed mRNA in the presence of chemical substance/The level of expressed mRNA in the absence of chemical substance (yeast gene YLR152C, cultured two hours with substance): 0.8
The level of expressed mRNA in the presence of chemical substance/The level of expressed mRNA in the absence of chemical substance (yeast gene YLR205C, cultured two hours with substance): 2.5
level of expressed mRNA in the presence of chemical substance / level in the absence of chemical substance (yeast gene YLR226W, cultured two hours with the chemical substance): 1.3
The level of expressed mRNA in the presence of chemical substance/The level of expressed mRNA in the absence of chemical substance (yeast gene YLR304C, mitochondria-located protein gene, cultured two hours with substance): 1.6
The level of expressed mRNA in the presence of chemical substance/The level of expressed mRNA in the absence of chemical substance (yeast gene YLR307W): 3.9
level of expressed mRNA in the presence of chemical substance / level in the absence of chemical substance (yeast gene YLR338W, cultured two hours with the chemical substance): 1.5
The level of expressed mRNA in the presence of chemical substance/The level of expressed mRNA in the absence of chemical substance (yeast gene YLR391W): 3.9
level of expressed mRNA in the presence of chemical substance / level in the absence of chemical substance (yeast gene YLR392C, cultured two hours with the chemical substance): 0.5
The level of expressed mRNA in the presence of chemical substance/The level of expressed mRNA in the absence of chemical substance (yeast gene YLR395C, mitochondria-located protein gene, cultured two hours with substance): 0.4
level of expressed mRNA in the presence of chemical substance / level in the absence of chemical substance (yeast gene YLR415C, cultured two hours with the chemical substance): 1.0
level of expressed mRNA in the presence of chemical substance / level in the absence of chemical substance (yeast gene YLR427W, cultured two hours with the chemical substance): 0.8
The level of expressed mRNA in the presence of chemical substance/The level of expressed mRNA in the absence of chemical substance (yeast gene YLR444C, cultured two hours with the substance): 1.3
level of expressed mRNA in the presence of chemical substance / level in the absence of chemical substance (yeast gene YML013W, cultured two hours with the chemical substance): 2.2
level of expressed mRNA in the presence of chemical substance / level in the absence of chemical substance (yeast gene YML029W, cultured two hours with the chemical substance): 0.8
level of expressed mRNA in the presence of chemical substance / level in the absence of chemical substance (yeast gene YML041C, cultured two hours with the chemical substance): 1.0
level of expressed mRNA in the presence of chemical substance / level in the absence of chemical substance (yeast gene YML079W, cultured two hours with the chemical substance): 0.3
The level of expressed mRNA in the presence of chemical substance/The level of expressed mRNA in the absence of chemical substance (yeast gene YML128C, cultured two hours with substance): 2.6
The level of expressed mRNA in the presence of chemical substance/The level of expressed mRNA in the absence of chemical substance (yeast gene YMR031C, cultured two hours with the substance): 0.7
level of expressed mRNA in the presence of chemical substance / level in the absence of chemical substance (yeast gene YMR068W, cultured two hours with the chemical substance): 2.2
level of expressed mRNA in the presence of chemical substance / level in the absence of chemical substance (yeast gene YMR071C, cultured two hours with the chemical substance): 0.8
The level of expressed mRNA in the presence of chemical substance/The level of expressed mRNA in the absence of chemical substance (yeast gene YMR083W, mitochondria-located protein gene, cultured two hours with substance): 1.3
The level of expressed mRNA in the presence of chemical substance/The level of expressed mRNA in the absence of chemical substance (yeast gene YMR090W, cultured two hours with substance): 1.9
level of expressed mRNA in the presence of chemical substance / level in the absence of chemical substance (yeast gene YMR160W, cultured two hours with the chemical substance): 1.5
level of expressed mRNA in the presence of chemical substance / level in the absence of chemical substance (yeast gene YNL026W, cultured two hours with the chemical substance): 0.8
level of expressed mRNA in the presence of chemical substance / level in the absence of chemical substance (yeast gene YNL058C, cultured two hours with the chemical substance): 2.2
level of expressed mRNA in the presence of chemical substance / level in the absence of chemical substance (yeast gene YNL063W, cultured two hours with the chemical substance): 0.7
level of expressed mRNA in the presence of chemical substance / level in the absence of chemical substance (yeast gene YNL176C, cultured two hours with the chemical substance): 0.8
level of expressed mRNA in the presence of chemical substance / level in the absence of chemical substance (yeast gene YNL194C, cultured two hours with the chemical substance): 0.5
level of expressed mRNA in the presence of chemical substance / level in the absence of chemical substance (yeast gene YNL200C, cultured two hours with the chemical substance): 0.8
The level of expressed mRNA in the presence of chemical substance/The level of expressed mRNA in the absence of chemical substance (yeast gene YNL241C, cultured for two hours with substance): 7.0
level of expressed mRNA in the presence of chemical substance / level in the absence of chemical substance (yeast gene YNL253W, cultured two hours with the chemical substance): 0.5
level of expressed mRNA in the presence of chemical substance / level in the absence of chemical substance (yeast gene YNL276C, cultured two hours with the chemical substance): 0.5
level of expressed mRNA in the presence of chemical substance / level in the absence of chemical substance (yeast gene YNR051C, cultured two hours with the chemical substance): 1.2
The level of expressed mRNA in the presence of chemical substance/The level of expressed mRNA in the absence of chemical substance (yeast gene YNR074C, cultured two hours with substance): 0.8
level of expressed mRNA in the presence of chemical substance / level in the absence of chemical substance (yeast gene YOL026C, cultured two hours with the chemical substance): 0.9
The level of expressed mRNA in the presence of chemical substance/The level of expressed mRNA in the absence of chemical substance (yeast gene YOR007C, cultured two hours with substance): 1.3
level of expressed mRNA in the presence of chemical substance / level in the absence of chemical substance (yeast gene YOR022C, cultured two hours with the chemical substance): 0.8
The level of expressed mRNA in the presence of chemical substance/The level of expressed mRNA in the absence of chemical substance (yeast gene YOR049C, cultured two hours with substance): 1.3
level of expressed mRNA in the presence of chemical substance / level in the absence of chemical substance (yeast gene YOR087W, cultured two hours with the chemical substance): 0.8
level of expressed mRNA in the presence of chemical substance / level in the absence of chemical substance (yeast gene YOR138C, cultured two hours with the chemical substance): 1.0
The level of expressed mRNA in the presence of chemical substance/The level of expressed mRNA in the absence of chemical substance (yeast gene YOR152C, cultured two hours with substance): 3.6
The level of expressed mRNA in the presence of chemical substance/The level of expressed mRNA in the absence of chemical substance (yeast gene YOR187W, mitochondria-located protein gene, cultured two hours with substance): 1.3
The level of expressed mRNA in the presence of chemical substance/The level of expressed mRNA in the absence of chemical substance (yeast gene YOR215C, cultured two hours with substance): 0.8
The level of expressed mRNA in the presence of chemical substance/The level of expressed mRNA in the absence of chemical substance (yeast gene YOR248W, cultured two hours with substance): 8.8
level of expressed mRNA in the presence of chemical substance / level in the absence of chemical substance (yeast gene YOR253W, cultured two hours with the chemical substance): 1.1
level of expressed mRNA in the presence of chemical substance / level in the absence of chemical substance (yeast gene YOR267C, cultured two hours with the chemical substance): 1.3
level of expressed mRNA in the presence of chemical substance / level in the absence of chemical substance (yeast gene YOR325W, cultured two hours with the chemical substance): 0.7
The level of expressed mRNA in the presence of chemical substance/The level of expressed mRNA in the absence of chemical substance (yeast gene YOR382W, cultured two hours with substance): 2.1
The level of expressed mRNA in the presence of chemical substance/The level of expressed mRNA in the absence of chemical substance (yeast gene YOR386W, mitochondria-located protein gene, cultured two hours with substance): 1.3
level of expressed mRNA in the presence of chemical substance / level in the absence of chemical substance (yeast gene YPL005W, cultured two hours with the chemical substance): 1.2
The level of expressed mRNA in the presence of chemical substance/The level of expressed mRNA in the absence of chemical substance (yeast gene YPL087W, cultured two hours with substance): 1.3
level of expressed mRNA in the presence of chemical substance / level in the absence of chemical substance (yeast gene YPL150W, cultured two hours with the chemical substance): 1.1
level of expressed mRNA in the presence of chemical substance / level in the absence of chemical substance (yeast gene YPL152W, cultured two hours with the chemical substance): 2.3
level of expressed mRNA in the presence of chemical substance / level in the absence of chemical substance (yeast gene YPL168W, cultured two hours with the chemical substance): 0.8
level of expressed mRNA in the presence of chemical substance / level in the absence of chemical substance (yeast gene YPL180W, cultured two hours with the chemical substance): 0.7
level of expressed mRNA in the presence of chemical substance / level in the absence of chemical substance (yeast gene YPL188W, cultured two hours with the chemical substance): 0.8
The level of expressed mRNA in the presence of chemical substance/The level of expressed mRNA in the absence of chemical substance (yeast gene YPL206C, cultured two hours with substance): 0.8
level of expressed mRNA in the presence of chemical substance / level in the absence of chemical substance (yeast gene YPL221W, cultured two hours with the chemical substance): 1.0
level of expressed mRNA in the presence of chemical substance / level in the absence of chemical substance (yeast gene YPL225W, cultured two hours with the chemical substance): 0.9
The level of expressed mRNA in the presence of chemical substance/The level of expressed mRNA in the absence of chemical substance (yeast gene YPR014C, cultured two hours with the substance): 0.9
The level of expressed mRNA in the presence of chemical substance/The level of expressed mRNA in the absence of chemical substance (yeast gene YPR023C, cultured two hours with substance): 0.8
The level of expressed mRNA in the presence of chemical substance/The level of expressed mRNA in the absence of chemical substance (yeast gene YPR037C, mitochondria-located protein gene, cultured two hours with substance): 4.1
level of expressed mRNA in the presence of chemical substance / level in the absence of chemical substance (yeast gene YPR049C, cultured two hours with the chemical substance): 1.5
level of expressed mRNA in the presence of chemical substance / level in the absence of chemical substance (yeast gene YPR146C, cultured two hours with the chemical substance): 0.9
level of expressed mRNA in the presence of chemical substance / level in the absence of chemical substance (yeast gene YPR148C, cultured two hours with the chemical substance): 1.7
level of expressed mRNA in the presence of chemical substance / level in the absence of chemical substance (yeast gene YPR172W, cultured two hours with the chemical substance): 1.5
